Target: Phosphatidylinositol 4,5-bisphosphate 3-kinase catalytic subunit alpha isoform (Homo sapiens, UniProt P42336)
Test: Filter-Binding-Assay: This PI3Kalpha assay provides an IC50 value indicative of the activity of the compounds to inhibit PI3 kinase alpha activity. Inhibition of PI3 kinase would be expected to be indicative of activity in treating conditions of excessive or anomalous cell proliferation, such as cancers. See also J. A. Engelman, Nature Reviews Cancer, 2009, 9, 550-562; A. Carnero, Expert Opin. Investig. Drugs, 2009, 18, 1265-1277 and P. Liu et al., Nature Reviews Drug Discovery, 2009, 8, 627-64.

Chain of Phosphatidylinositol 4,5-bisphosphate 3-kinase catalytic subunit alpha isoform (P42336 whole entry, canonical isoform): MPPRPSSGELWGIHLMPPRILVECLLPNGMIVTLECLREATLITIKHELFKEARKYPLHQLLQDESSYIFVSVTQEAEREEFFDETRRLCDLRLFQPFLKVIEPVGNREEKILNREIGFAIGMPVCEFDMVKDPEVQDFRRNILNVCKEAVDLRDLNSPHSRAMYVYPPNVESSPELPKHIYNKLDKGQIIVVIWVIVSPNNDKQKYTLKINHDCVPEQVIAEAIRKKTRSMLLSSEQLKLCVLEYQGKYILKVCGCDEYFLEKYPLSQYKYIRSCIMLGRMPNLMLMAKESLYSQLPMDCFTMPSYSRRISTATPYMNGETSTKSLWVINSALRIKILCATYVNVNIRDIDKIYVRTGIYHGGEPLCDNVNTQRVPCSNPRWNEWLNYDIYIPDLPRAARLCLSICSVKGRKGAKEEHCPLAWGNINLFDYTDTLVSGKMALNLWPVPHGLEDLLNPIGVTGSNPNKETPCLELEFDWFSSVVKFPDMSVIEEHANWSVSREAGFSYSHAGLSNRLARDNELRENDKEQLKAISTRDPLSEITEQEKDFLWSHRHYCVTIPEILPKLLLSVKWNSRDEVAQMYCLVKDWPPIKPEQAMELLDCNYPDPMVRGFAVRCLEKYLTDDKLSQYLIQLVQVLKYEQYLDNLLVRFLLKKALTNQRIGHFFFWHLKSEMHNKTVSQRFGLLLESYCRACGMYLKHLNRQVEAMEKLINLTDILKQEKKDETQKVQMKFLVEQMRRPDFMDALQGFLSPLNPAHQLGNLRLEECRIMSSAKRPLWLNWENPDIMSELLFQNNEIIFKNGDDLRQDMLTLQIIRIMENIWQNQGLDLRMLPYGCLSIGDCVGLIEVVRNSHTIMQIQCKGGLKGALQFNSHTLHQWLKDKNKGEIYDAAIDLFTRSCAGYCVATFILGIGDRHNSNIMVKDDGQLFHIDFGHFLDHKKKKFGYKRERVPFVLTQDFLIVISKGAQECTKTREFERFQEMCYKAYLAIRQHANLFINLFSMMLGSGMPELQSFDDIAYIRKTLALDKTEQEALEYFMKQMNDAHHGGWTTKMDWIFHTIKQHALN

| IC50 | SMILES |
| --- | --- |
| 0.56 nM | Cc1ncc(C#Cc2c(C)ncnc2N2CCOCC2)cc1NS(=O)(=O)c1cnn(C)c1 |
| 0.86 nM | CCc1ncnc(N2CCC(O)CC2)c1C#Cc1cnc(C)c(NS(C)(=O)=O)c1 |

Source: ChEMBL document CHEMBL3638751, “5-alkynyl-pyridines” (2013)
